This is an account of results in US4032534A, “Certain 2-(2-thioethyl)thiazolidine-4-carboxylic acids” (Ferlus-Chimie S.A., priority 1973, dated 1977).

Data set [1] deals with femoral arterial pressure and cardiac contractile force. Kind of data set: Cardiovascular action in a dog anaesthetised with chloralose. Format: in vivo. As to the method:
This action was studied in a dog, anaesthetised with chloralose, its reflexogenic, cardioaortic and sinocarotidian zones being intact (normotense dog), or denervated (hypertense dog). The product to be tested was injected in the saphena vein, and the femoral arterial pressure and cardiac contractile force were recorded.

In another data set the test system is mouse. The following applies: for DL 50: per os, species not given.
A further data set is described as follows: in vivo. The note with it: mouse, po.
Data set [2] concerns phenylbenzoquinone-induced stretching or twisting movements (writhing syndrome). Kind of data set: Siegmund test (analgesic action; phenylbenzoquinone writhing syndrome). Format: in vivo. The following applies: mouse, 300 mg/kg PO, 30 minutes before phenylbenzoquinone, protected = less than five stretching movements in 5 minutes. As to the method:
Reference: […], E. A.: CADMUS, R. A.: GOLU: "A Method for evaluating both non-narcotic and narcotic Analgesics." Pro. Soc. Exp. Biol., 1957, b, 95, 729-731.
Principle: Injection of an irritant, phenylbenzoquinone (in 0.02% solution), into the peritoneum of a mouse, determination of the stretching or twisting movements (writhing syndrome), whose frequency is diminished by the preventive administration of analgesic.
The substances were given orally 30 minutes before injection of the irritant. The number of stretching movements between the 5th and 10th minute after injection of phenylbenzoquinone were counted. The percentage of animals protected was calculated. A mouse was considered protected if it executed less than five stretching movements in 5 minutes.

Data set [3] can be described thus: Mucolytic action: measurement of the fluidising action of the bronchial secretion (microviscosimeter of the BROOKFIELD type). The note with it: for Percentage diminution of viscosity: 37° C. How it is done: Mucolytic action: measurement of the fluidising action of the bronchial secretion.
The study of the viscosity of an expectoration is effected in vitro. In order to measure viscosity, a microviscosimeter of the BROOKFIELD type is used. With the aid of this apparatus, the resistant couple exerted on a rotor is determined. This rotor, submerged in the liquid whose viscosity is to be measured, rotates at a known constant speed.
1.5 ml of secretion, taken to ambient temperature, was poured into a container of the viscosimeter. After 4 minutes, the temperature of the expectoration was balanced at 37° C., then the motor of the apparatus was started for 5 minutes, after which measurement was effected.
Three rotor speeds were used:
1.5 r.p.m.; 3 r.p.m., and 6 r.p.m.
The three speeds were used for each test. Firstly, the viscosity of the pure expectoration was measured, then that of the expectoration to which had been added one drop of distilled water as a solvent, and whose retained values were later used as witness values, or placebo values.
Thereafter, 1.5 ml of secretion had added to it a drop of the product at the first aqueous concentration envisaged.
The viscosity was measured at the three rotary speeds of the rotor. The same operation was repeated at the following concentrations; 1 mg/ml; 2 mg/ml and 5 mg/ml.
The reference substance was mercapto-ethane sulfonate of sodium or MISTABRON (M.E.S. Na). This substance had been studied under the same experimental conditions at a concentration of 200 mg/ml.

Turning to `O=C(O)C1CSC(CCSCc2nc3ccccc3[nH]2)N1` (stereo not shown) [Compound No. 10, 2-[2-(benzimidazolylmethyl)-2-thioethyl]-thiazolidine 4-carboxylic acid], in data set [1] (saphena vein injection, 20 mg/kg), the “cardiostimulant properties (in words)” value was “clear cardiostimulant properties”. Besides, in the data set with mouse, the “DL 50” value is reported as more than 1200 mg/kg.
With `O=C(O)C1CSC(CCSc2nc3ncccc3o2)N1` (stereo not shown) [compound 11, 2-(2-pyridoxazolyl-2-thioethyl)thiazolidine 4-carboxylic acid], in “in vivo”, the LD50 was more than 1200 mg/kg. For the same molecule, in data set [2], the “% of animals protected” value came to 20%.
`O=S(=O)(O)CCS` [M.E.S. Na, mercapto-ethane sulfonate of sodium, reference compound]: the “Percentage diminution of viscosity” value in data set [3] (200 mg/ml, rotor speed V = 1.5 r.p.m.) stood at 66%; in data set [3] (200 mg/ml, rotor speed V = 3 r.p.m.), 65%; in data set [3] (200 mg/ml, rotor speed V = 6 r.p.m.) it was 55%.
As to `CCOC(=O)CSCCC1NC(C(=O)O)CS1` (stereo not shown) [Compound No. 8, 2-[(Ethoxycarbonylmethylthio)-ethyl] thiazolidine 4-carboxylate of diisopropylamine], the “Percentage diminution of viscosity” value in data set [3] (1 mg/ml, rotor speed V = 1.5 r.p.m.) turned out to be 58%; in data set [3] (1 mg/ml, rotor speed V = 3 r.p.m.), 55%; in data set [3] (1 mg/ml, rotor speed V = 6 r.p.m.) it was 46%; in data set [3] (2 mg/ml, rotor speed V = 1.5 r.p.m.), 60%; in data set [3] (2 mg/ml, rotor speed V = 3 r.p.m.) it was 57%; in data set [3] (2 mg/ml, rotor speed V = 6 r.p.m.) it was 47.5%. Also, the “Percentage diminution of viscosity” value turned out to be 71% in data set [3] (5 mg/ml, rotor speed V = 1.5 r.p.m.); 62% in data set [3] (5 mg/ml, rotor speed V = 3 r.p.m.); 58% in data set [3] (5 mg/ml, rotor speed V = 6 r.p.m.). For the same molecule, the “mucolytic action versus reference M.E.S. Na (in words)” value in data set [3] (in accordance with the doses used (1, 2, 5 mg/ml vs 200 mg/ml M.E.S. Na)) was “comparable with and even superior to the reference substance”.
Regarding `O=C(O)CSCCC1NC(C(=O)O)CS1` (stereo not shown) [Compound No. 4, 4-carboxy-thiazolidinyl-2-ethyl mercapto acetic acid], the LD50 in the data set “in vivo” is more than 1200 mg/kg. The “% of animals protected” value in data set [2] (300 mg/kg) is reported as 40%.
`O=C(O)CSCCC1NC(C(=O)O)CS1` (stereo not shown) [Compound No. 5, 4-carboxy thiazolidinyl 2-ethyl mercapto acetate of di(diisopropylamine)]: the “antihypertensive and hypotensive action (in words)” value in data set [1] (intravenous, 10 mg/kg) was “antihypertensive and hypotensive”. For the same molecule, in data set [2] (300 mg/kg), the “% of animals protected” value worked out at 20%. Further, in the data set on mouse, the “Acute Toxicity mouse PO” value is on record as more than 1200 mg/kg and the “DL 50” value is reported as more than 1200 mg/kg.
Take `O=C(O)CSCCC1NC(C(=O)O)CS1` (stereo not shown) [compound 6, 4-carboxy thiazolidinyl 2-ethyl mercapto arginine acetate]: the “% of animals protected” value in data set [2] (acetate, 300 mg/kg) is listed as 20%. For the same molecule, the “Acute Toxicity mouse PO” value with mouse is recorded as more than 1200 mg/kg.
